Legend:
Assay type in all cases: biochemical
[1] = biological target: EGF-R T790M/L858R (Homo sapiens, UniProt P00533, L858R/T790M); experiment: Radiometric protein kinase IC50 assay (33PanQinase); details: for inhibitory activity on EGFR mutant containing both T790M and L858R, times stronger than neratinib: ratio of IC50 values to neratinib
Experimental: (§1) The compounds were serially diluted in semi-log steps with 100% DMSO in a 96 well microtiter plate. The concentration range of this serial dilution was 1 × 10^−3 M to 3 × 10^−8 M. Directly before use the test compounds were further diluted 1:10 with water, resulting in a concentration range from 1 × 10^−4 M to 3 × 1 0^−9 M in 10% DMSO. For the assays, 5 μL from each concentration were transferred into the assay. The final volume of the assay was 50 μL. The compounds were tested at 10 final assay concentrations in the range from 1 × 10^−5 M to 3 × 10^−10 M. The final DMSO concentration in the reaction cocktails was 1% in all cases.
(§2) A radiometric protein kinase assay (33PanQinase® Activity Assay) was used for measuring the kinase activity of the 9 protein kinases. All kinase assays were performed in 96-well FlashPlatesTM from Perkin Elmer (Boston, MA, USA) in a 50 μL reaction volume. The reaction cocktail was pipetted in 4 steps in the following order: 10 μL of non-radioactive ATP solution (in H2O), 25 μL of assay buffer/[γ-33P]-ATP mixture, 5 μL of test sample in 10% DMSO, 10 μL of enzyme/substrate mixture. The assay for all protein kinases contained 70 mM HEPES-NaOH pH 7.5, 3 mM MgCl2, 3 mM MnCl2, 3 μM Na-orthovanadate, 1.2 mM DTT, ATP, [γ-33P]-ATP, protein kinase, and substrate.The reaction cocktails were incubated at 30 °C for 60 min. The reaction was stopped with 50 μL of 2% (v/v) H3PO4, plates were aspirated and washed two times with 200 μL 0.9% (w/v) NaCl. Incorporation of 33Pi (counting of “cpm”) was determined with a microplate scintillation counter (Microbeta, Wallac). All assays were performed with a BeckmanCoulter Biomek 2000/SL robotic system.
(§3) For each kinase, the median value of the cpm of three wells with complete reaction cocktails, but without kinase, was defined as “low control” (n = 3). This value reflects unspecific binding of radioactivity to the plate in the absence of protein kinase but in the presence of the substrate. Additionally, for each kinase the median value of the cpm of three other wells with the complete reaction cocktail, but without any compound, was taken as the “high control”, i.e. full activity in the absence of any inhibitor (n = 3). The difference between high and low control was taken as 100% activity for each kinase. As part of the data evaluation the low control value of each kinase was subtracted from the high control value as well as from their corresponding “compound values”. The residual activity (in %) for each compound well was calculated by using the following formula: Res. Activity (%) = 100 × [(cpm of compound – low control)/(high control – low control)]
(§4) Based on each 10 corresponding residual activities, IC50 values were calculated using Prism 5.04 for Windows. The mathematical model used was “Sigmoidal response (variable slope)” with parameters “top” fixed at 100% and “bottom” at 0%. The fitting method used was a least-squares fit.

[2] = biological target: EGF-R T790M (Homo sapiens, UniProt P00533, T790M); experiment: as above
EGF-R T790M, sequence (P00533 25-1210 T790M): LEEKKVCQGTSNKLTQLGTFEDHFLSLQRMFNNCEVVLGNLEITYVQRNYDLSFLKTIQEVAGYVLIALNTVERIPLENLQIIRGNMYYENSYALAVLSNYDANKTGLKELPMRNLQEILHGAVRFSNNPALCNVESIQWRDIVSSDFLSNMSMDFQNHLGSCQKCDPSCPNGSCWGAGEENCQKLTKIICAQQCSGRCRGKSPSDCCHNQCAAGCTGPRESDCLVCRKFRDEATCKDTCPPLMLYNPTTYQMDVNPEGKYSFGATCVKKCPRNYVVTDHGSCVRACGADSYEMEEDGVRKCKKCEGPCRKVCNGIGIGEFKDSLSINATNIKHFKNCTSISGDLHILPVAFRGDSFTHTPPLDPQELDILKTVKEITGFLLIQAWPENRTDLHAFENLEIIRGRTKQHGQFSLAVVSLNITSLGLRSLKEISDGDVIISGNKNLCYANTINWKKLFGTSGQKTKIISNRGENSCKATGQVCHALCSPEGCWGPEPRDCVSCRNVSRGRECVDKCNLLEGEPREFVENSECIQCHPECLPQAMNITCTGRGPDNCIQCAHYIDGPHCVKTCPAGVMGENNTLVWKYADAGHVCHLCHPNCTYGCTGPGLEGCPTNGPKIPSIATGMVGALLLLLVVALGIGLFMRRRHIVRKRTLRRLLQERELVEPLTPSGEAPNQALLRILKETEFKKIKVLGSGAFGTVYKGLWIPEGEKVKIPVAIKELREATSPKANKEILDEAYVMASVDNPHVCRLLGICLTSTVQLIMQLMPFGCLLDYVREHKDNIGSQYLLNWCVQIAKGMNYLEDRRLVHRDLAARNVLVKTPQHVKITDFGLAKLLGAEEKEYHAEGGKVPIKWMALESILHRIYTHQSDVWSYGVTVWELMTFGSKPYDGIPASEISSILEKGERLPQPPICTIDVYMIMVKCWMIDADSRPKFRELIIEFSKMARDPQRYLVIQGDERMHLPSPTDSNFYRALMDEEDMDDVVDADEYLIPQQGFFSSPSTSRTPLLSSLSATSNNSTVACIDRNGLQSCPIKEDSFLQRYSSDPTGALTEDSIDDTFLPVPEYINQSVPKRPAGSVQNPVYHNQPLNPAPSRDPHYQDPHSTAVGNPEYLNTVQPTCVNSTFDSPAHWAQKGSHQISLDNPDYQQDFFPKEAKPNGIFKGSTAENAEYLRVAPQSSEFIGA
Experimental: as §1, §2, §3, §4

[3] = biological target: T1, HER2 (Homo sapiens, UniProt P04626); experiment: as above
T1 construct: purchased ProQinase GmbH
T1 sequence (P04626 23-1255): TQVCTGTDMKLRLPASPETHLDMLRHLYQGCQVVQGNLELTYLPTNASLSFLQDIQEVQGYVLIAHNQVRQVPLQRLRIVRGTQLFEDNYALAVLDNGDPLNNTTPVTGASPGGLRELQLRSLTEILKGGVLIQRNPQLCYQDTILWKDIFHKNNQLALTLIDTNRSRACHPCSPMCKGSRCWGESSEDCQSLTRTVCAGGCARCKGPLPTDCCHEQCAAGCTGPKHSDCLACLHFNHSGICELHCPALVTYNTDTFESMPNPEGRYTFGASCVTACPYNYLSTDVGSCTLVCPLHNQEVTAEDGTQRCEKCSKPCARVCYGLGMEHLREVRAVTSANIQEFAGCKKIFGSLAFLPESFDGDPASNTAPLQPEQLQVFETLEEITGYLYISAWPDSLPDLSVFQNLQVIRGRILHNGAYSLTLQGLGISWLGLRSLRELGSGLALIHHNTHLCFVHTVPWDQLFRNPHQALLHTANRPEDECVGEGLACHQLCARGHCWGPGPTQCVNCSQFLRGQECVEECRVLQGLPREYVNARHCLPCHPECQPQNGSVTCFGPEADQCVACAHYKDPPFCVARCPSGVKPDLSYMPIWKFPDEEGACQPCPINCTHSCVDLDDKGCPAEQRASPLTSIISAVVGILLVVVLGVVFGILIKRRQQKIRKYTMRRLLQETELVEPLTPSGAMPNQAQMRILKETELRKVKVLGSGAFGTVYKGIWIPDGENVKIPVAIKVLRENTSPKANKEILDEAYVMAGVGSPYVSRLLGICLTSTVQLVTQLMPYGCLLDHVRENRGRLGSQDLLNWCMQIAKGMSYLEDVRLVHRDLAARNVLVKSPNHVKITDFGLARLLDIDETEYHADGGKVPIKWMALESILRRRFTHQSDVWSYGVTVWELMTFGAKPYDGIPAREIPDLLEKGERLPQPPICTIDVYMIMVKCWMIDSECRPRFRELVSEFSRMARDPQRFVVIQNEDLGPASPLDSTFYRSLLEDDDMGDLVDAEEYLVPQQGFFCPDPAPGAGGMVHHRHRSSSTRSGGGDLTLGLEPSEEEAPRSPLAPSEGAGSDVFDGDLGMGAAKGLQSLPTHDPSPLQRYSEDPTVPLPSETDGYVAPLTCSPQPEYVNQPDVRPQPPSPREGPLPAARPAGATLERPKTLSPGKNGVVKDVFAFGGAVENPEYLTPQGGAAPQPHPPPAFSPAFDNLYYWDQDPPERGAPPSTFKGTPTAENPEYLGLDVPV
Experimental: as §1, §2, §3, §4

[4] = biological target: EGF-R L861Q (Homo sapiens, UniProt P00533, L861Q); experiment: as above
Experimental: as §1, §2, §3, §4

[5] = biological target: EGF-R d752-759 (Homo sapiens, UniProt P00533, DEL752-759); experiment: as above
Experimental: as §1, §2, §3, §4

[6] = biological target: EGF-R G719S (Homo sapiens, UniProt P00533, G719S); experiment: as above
Experimental: as §1, §2, §3, §4

[7] = biological target: EGF-R L858R (Homo sapiens, UniProt P00533, L858R); experiment: as above
Experimental: as §1, §2, §3, §4

[8] = biological target: T2, EGF-R wt (Homo sapiens, UniProt P00533); experiment: as above; details: for biochemical activity on EGFR wt compared with neratinib: not more than that of neratinib
T2 construct: purchased ProQinase GmbH
T2 sequence (P00533 25-1210): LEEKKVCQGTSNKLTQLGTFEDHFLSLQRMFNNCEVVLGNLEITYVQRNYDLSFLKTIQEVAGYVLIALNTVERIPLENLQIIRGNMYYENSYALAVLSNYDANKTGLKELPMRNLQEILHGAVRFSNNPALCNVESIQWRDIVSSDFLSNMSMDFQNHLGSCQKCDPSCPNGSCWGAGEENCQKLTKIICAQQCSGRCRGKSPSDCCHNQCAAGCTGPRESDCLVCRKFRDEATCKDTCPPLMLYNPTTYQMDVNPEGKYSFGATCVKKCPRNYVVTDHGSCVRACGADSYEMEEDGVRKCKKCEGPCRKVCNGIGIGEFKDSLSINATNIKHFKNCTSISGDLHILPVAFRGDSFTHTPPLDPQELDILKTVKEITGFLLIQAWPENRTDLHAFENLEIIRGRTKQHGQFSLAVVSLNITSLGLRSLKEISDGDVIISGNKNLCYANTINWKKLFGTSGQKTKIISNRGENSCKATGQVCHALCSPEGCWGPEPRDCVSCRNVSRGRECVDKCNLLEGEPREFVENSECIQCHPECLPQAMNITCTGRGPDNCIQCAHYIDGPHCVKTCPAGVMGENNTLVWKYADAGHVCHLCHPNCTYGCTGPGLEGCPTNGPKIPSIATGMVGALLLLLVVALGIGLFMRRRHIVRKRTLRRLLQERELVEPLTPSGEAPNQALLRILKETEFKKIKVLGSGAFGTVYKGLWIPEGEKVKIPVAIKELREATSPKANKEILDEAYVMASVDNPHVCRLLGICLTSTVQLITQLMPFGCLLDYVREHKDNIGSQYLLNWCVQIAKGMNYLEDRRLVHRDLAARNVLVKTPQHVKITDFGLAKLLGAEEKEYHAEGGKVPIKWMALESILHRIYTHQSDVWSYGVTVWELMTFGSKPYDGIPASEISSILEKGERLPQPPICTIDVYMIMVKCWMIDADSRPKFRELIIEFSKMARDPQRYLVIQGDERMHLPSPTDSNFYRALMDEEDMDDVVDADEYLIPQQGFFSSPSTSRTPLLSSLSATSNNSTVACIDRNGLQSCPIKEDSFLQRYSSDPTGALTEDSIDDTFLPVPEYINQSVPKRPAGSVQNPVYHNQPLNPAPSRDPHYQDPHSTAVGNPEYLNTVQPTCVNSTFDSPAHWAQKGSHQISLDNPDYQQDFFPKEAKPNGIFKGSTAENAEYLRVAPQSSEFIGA
Experimental: as §1, §2, §3, §4

[9] = biological target: EGF-R d747-749/A750P (Homo sapiens, UniProt P00533, A750P/DEL747-749); experiment: as above
Experimental: as §1, §2, §3, §4

[10] = biological target: T2, EGF-R wt; experiment: EGFR-wt protein kinase assay (33PanQinase), single concentration; details: 0.5 μM (5 × 10^−7 M), singlicate, % of control activity; read-out: Residual activity under 0.5 μM drug concentration (%) EGF-R wt
Experimental: (§5) The inhibitory profile of 16 compounds was determined using two protein kinases. The compounds were tested at a concentration of 5 × 1 0^−7 M, in singlicate. The compounds were solved and diluted to 5 × 10^−5 M stock solutions in 100% DMSO according to the customer-filled CSF. 10 μL of each of the stock solutions were transferred into […] of a 96-well, Column 1 and 2 of the plate were filled with 10 μL100% DMSO. The plate is in the following referred to as “copy plate”. In the process, 90 μL H2O were added to each well of the copy plate. To minimize potential compound precipitation, the H2O was added to each well only a few minutes before the transfer of the compound solutions into the assay plates. The plate was shaken thoroughly, resulting in a “compound dilution plate” with a compound concentration of 5 × 10^−6 M/10% DMSO. This plate was used for the transfer of 5 μL compound solution into the assay plates. The final volume of the assay was 50 μL. All compounds were tested at 5 × 1 0^−7 M in singlicate. The final DMSO concentration in the reaction cocktails was 1% in all cases. The compound dilution plate was disposed.
(§6) A radiometric protein kinase assay (33PanQinase® Activity Assay) was used for measuring the kinase activity of the two protein kinases. All kinase assays were performed in 96-well FlashPlatesTM from PerkinElmer (Boston, MA, USA) in a 50 μL reaction volume. The reaction cocktail was pipetted in 4 steps in the following order: 20 μL of assay buffer, 5 μL of ATP solution (in H2O), 5 μL of test compound (in 10% DMSO), 20 μL enzyme/subtrate mix. The assay for both protein kinases contained 70 mM HEPES-NaOH pH 7.5, 3 mM MgCl2, 3 mM MnCl2, 3 μM Na-orthovanadate, 1.2 mM DTT, ATP. The assay for ERBB2 additionally contained 50 μg/mLPEG20000. The reaction cocktails were incubated at 30 °C for 60 min. The reaction was stopped with 50 μL of 2% (v/v) H3PO4, plates were aspirated and washed two times with 200 μL 0.9% (w/v) NaCl. Incorporation of 33Pi was determined with a microplate scintillation counter (Microbeta, Wallac). All assays were performed with a BeckmanCoulter/SAGIAN™Core System. The median value of the counts in column 1 (n = 8) of each assay plate was defined as “low control”. This value reflects unspecific binding of radioactivity to the plate in the absence of a protein kinase but in the presence of the substrate. The median value of the counts in column 2 of each assay plate (n = 8) was taken as the “high control”. As part of the data evaluation the low control value from a particular plate was subtracted from the high control value as well as from all 80 “compound values” of the corresponding plate. The residual activity (in %) for each well of a particular plate was calculated by using the following formula: Res. Activity (%) = 100 × [(cpm of compound – low control)/(high control − low control)]

[11] = biological target: T1, HER2; experiment: HER2 protein kinase assay (33PanQinase), single concentration; details: 0.5 μM (5 × 10^−7 M), singlicate, % of control activity; read-out: Residual activity under 0.5 μM drug concentration (%) HER2
Experimental: as §5, §6

EGF-R T790M/L858R, sequence (P00533 25-1210 T790M/L858R): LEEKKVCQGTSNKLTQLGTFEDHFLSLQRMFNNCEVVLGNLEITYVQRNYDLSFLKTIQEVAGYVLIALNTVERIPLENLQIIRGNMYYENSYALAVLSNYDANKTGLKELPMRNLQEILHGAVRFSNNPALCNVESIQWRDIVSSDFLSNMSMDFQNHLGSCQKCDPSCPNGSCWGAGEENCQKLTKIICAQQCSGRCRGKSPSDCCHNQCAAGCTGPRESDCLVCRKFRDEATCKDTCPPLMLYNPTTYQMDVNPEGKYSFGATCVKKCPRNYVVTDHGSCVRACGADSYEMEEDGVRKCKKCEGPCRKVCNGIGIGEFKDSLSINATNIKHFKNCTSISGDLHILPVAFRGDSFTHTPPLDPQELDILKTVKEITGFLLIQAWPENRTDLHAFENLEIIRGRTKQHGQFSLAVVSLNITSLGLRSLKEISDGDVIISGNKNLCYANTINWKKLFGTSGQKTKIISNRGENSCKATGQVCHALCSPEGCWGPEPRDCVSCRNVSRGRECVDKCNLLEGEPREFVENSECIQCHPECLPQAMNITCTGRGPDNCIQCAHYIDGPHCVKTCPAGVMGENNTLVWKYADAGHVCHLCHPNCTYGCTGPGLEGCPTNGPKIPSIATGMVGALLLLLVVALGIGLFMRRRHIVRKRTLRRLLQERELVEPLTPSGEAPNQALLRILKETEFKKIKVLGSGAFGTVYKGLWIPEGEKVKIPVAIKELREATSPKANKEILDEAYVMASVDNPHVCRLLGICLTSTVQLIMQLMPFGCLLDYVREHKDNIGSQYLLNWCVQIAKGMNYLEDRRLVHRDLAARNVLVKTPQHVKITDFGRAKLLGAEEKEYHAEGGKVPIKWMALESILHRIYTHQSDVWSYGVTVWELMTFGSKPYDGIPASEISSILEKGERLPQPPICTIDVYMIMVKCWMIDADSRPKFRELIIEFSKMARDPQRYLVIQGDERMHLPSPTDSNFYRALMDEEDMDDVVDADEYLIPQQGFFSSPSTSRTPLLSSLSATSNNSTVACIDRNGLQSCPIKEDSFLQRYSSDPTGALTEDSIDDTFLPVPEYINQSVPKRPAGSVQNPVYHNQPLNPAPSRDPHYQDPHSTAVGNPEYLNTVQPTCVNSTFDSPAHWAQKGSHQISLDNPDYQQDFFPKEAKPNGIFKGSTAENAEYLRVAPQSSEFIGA

Structure (SMILES) | IC50 [1] [nM] | inhibitory activity on EGFR mutant containing both T790M and L858R, times stronger than neratinib [1] [times] | IC50 [2] [nM] | IC50 [3] [nM] | IC50 [4] [nM] | IC50 [5] [nM] | IC50 [6] [nM] | IC50 [7] [nM] | IC50 [8] [nM] | biochemical activity on EGFR wt compared with neratinib [8] | IC50 [9] [nM] | remaining activity at 0.5 µM [10] [%] | remaining activity at 0.5 µM [11] [%]
C=CC(=O)N1CC2(CCN(C)CC2)c2cc(OC)c(Nc3ncc(C#N)c(Nc4ccc(OCc5ccccn5)cc4)n3)cc21 [Compound A1, 2-{[5-methoxy-1′-methyl-1-(prop-2-enoyl)-1,2-dihydrospiro[indole-3,4′ -piperidine]-6-yl]amino}-4-{[4-(pyridin-2-ylmethoxy)phenyl]amino}pyrimidine-5-carbonitrile] | 90 | 31 | 89 | 260 | 76 | 210 | 200 | 86 | 61 | within five times | 53 | 7 | 9
C=CC(=O)N1CC2(CCN(C)CC2)c2cc(OC)c(Nc3ncc(C#N)c(Nc4ccc(OCc5ccccn5)c(Cl)c4)n3)cc21 [Compound A2, 4-{[3-chloro-4-(pyridin-2-ylmethoxy)phenyl]amino}-2-{[5-methoxy-1′-methyl-1-(prop-2-enoyl)-1,2-dihydrospiro[indole-3,4′-piperidine]-6-yl]amino}pyrimidine-5-carbonitrile] | 80 | 31 | 130 | 310 | 81 | 200 | 240 | 81 | 59 | within five times | 54 | 6 | 5
